Source: ChEMBL document CHEMBL1201862, “PubChem BioAssay data set” (2004)
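Cells were grown in 96-well plates and exposed to each compound for 48 hours at five concentrations; endpoints were interpolated linearly between bracketing concentrations, or set to the highest concentration if not reached. Abbreviation: GI50, concentration required for 50% inhibition of growth.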 Calls of active or inactive are those of the source. Cut-off read from the data, not from the text of the source: active = GI50 up to about 1.1 µM and inactive = higher.

Experiments:
Test in all cases: DTP human tumour cell line panel, 48 h
[1] = system: NCI-H522
[2] = system: ACHN
[3] = system: MCF7
[4] = system: SF-268
[5] = system: MOLT-4
[6] = system: SK-OV-3
[7] = system: MDA-MB-435
[8] = system: OVCAR-5
[9] = system: BT-549
[10] = system: SK-MEL-2
[11] = system: CCRF-CEM
[12] = system: K562
[13] = system: NCI-H226
[14] = system: TK-10
[15] = system: 786-0
[16] = system: HOP-62
[17] = system: IGROV-1
[18] = system: SK-MEL-28
[19] = system: SNB-75

Measured: GI50

Nc1n[n+]2cc(-c3ccccc3)n(CC(=O)c3ccccc3)c2s1
inactive: [1] 13.3 µM | [2] 65.2 µM | [3] 10.8 µM | [4] 20.3 µM | [5] 20.9 µM | [6] > 100 µM | [7] 36.9 µM | [8] 18.8 µM | [9] 19.6 µM | [10] 15.5 µM | [11] 15.8 µM | [12] 29.7 µM | [13] 32.4 µM | [14] 23.6 µM | [15] 20.5 µM | [16] 24.8 µM | [17] 70.8 µM

c1ccc2c(c1)Nc1nc3nonc3nc1N2
inactive: [1] > 100 µM | [18] > 100 µM | [2] > 100 µM | [3] > 100 µM | [4] > 100 µM | [5] > 100 µM | [6] > 100 µM | [7] > 100 µM | [8] > 100 µM | [9] > 100 µM | [10] > 100 µM | [11] > 100 µM | [12] > 100 µM | [13] > 100 µM | [14] > 100 µM | [15] > 100 µM | [16] > 100 µM | [17] > 100 µM

N#Cc1c(N)[nH]c(=S)c(C#N)c1-c1cccc(Cl)c1
inactive: [1] 18.9 µM | [18] 39.6 µM | [2] 61.1 µM | [3] 32.3 µM | [4] 21.8 µM | [5] 18.4 µM | [7] 21.4 µM | [8] > 100 µM | [9] 39.5 µM | [10] 20.3 µM | [12] 26.2 µM | [13] 19.9 µM | [14] 65.2 µM | [15] 18.6 µM | [16] 42.4 µM | [17] 32.9 µM

CC(C)C1OC2(C)OC(=N)C1(C#N)C(C#N)(C#N)C2C (stereo not drawn)
inactive: [18] 37.1 µM | [2] 36 µM | [3] 18.7 µM | [4] 20.1 µM | [5] 30.1 µM | [6] > 100 µM | [7] 37.8 µM | [8] 25.6 µM | [9] 51.6 µM | [10] 17.6 µM | [19] 32.1 µM | [11] 16 µM | [12] 30 µM | [13] > 100 µM | [14] 47.1 µM | [15] 19.4 µM | [17] > 10 µM
